Results from patent publication US20200268827A1, “COMPOSITION FOR PREVENTION, IMPROVEMENT OR TREATMENT OF OSTEOARTHRITIS COMPRISING ALPINIA OXYPHYLLA EXTRACT AS EFFECTIVE COMPONENT” (KOREA INSTITUTE OF ORIENTAL MEDICINE, priority 2017, published 2020).

What was measured:
Type in all cases: in vivo, SD rat
MMP-9 = test: mRNA expression of cartilage degeneration-inducing factor in joint with induced osteoarthritis by PCR; settings: compared to MIA-induced increase, FIG. 2
Description: (§1) From a joint with induced osteoarthritis, mRNA was extracted and the expression of an inflammatory factor (IL-1β, IL-6, TNF-α and COX-2) and a cartilage degeneration-inducing factor (MMP-9) was examined by PCR.

IL-1β = test: mRNA expression of inflammatory factor in joint with induced osteoarthritis by PCR; settings: compared to MIA-induced increase, FIG. 2
Description: as §1

IL-6 = test: as above; settings: compared to MIA-induced increase, FIG. 2
Description: as §1

TNF-α = test: as above; settings: compared to MIA-induced increase, FIG. 2
Description: as §1

COX-2 = test: as above; settings: compared to MIA-induced increase, FIG. 2
Description: as §1

[1] = test system: MIA (monosodium iodoacetate)-induced osteoarthritis; test: Bodyweight loading of hind limb in animal model of MIA-induced osteoarthritis (incapacitance tester); settings: compared to MIA group; oral once a day for 21 days, measured every 7 days; FIG. 1
Method: To determine the effect of an extract of Alpinia oxyphylla, which has been prepared in the above Example 1, on bodyweight loading in an animal model of MIA-induced osteoarthritis, MIA as an osteoarthritis-inducing material (diluted to 60 mg/ml with 0.9% physiological saline) was administered in an amount of 50 μl to an articular cavity of a right hind limb of 7-week old SD rat to induce osteoarthritis. After that, the animal was orally administered with an extract of Alpinia oxyphylla (150 or 300 mg/kg) once a day for 21 days, while the percentage of bodyweight loading was measured every 7 days. As a positive control group, indomethacin (1 mg/kg) was used.
The bodyweight loading on hind limb was measured by using a paw weight tester (Incapacitance tester, Linton instrument Co., UK, Ser No. 01/45/25). In a tester holder, the rat with induced osteoarthritis tends to stand on a normal paw which has not been administered with MIA due to the pain occurring in the other paw, and thus balance between the weights of two paws was not maintained so that the weight of paw administered with MIA is measured to be relatively lighter than the weight of normal paw. […] Then, by using the weight of paw which has been measured accordingly, percentage of bodyweight loading (%) was calculated based on the following Formula 1. […]

COc1ccc2c(c1)c(CC(=O)O)c(C)n2C(=O)c1ccc(Cl)cc1 [indomethacin]
expression of MMP-9 (cartilage degeneration-inducing factor) (MMP-9): decreased in significant sense | expression of IL-1β (inflammatory factor) (IL-1β): decreased in significant sense | expression of IL-6 (inflammatory factor) (IL-6): decreased in significant sense | expression of TNF-α (inflammatory factor) (TNF-α): decreased in significant sense | expression of COX-2 (inflammatory factor) (COX-2): decreased in significant sense | percentage of bodyweight loading (%) of hind limb [1]: higher than the MIA-induced osteoarthritis group
